{
  "source": "patent US9464056B2",
  "about": "“Fungicidal 4-methylanilino pyrazoles” (E. I. DU PONT DE NEMOURS AND COMPANY, priority 2012, dated 2016)",
  "assay_type_in_all_cases": "in vivo",
  "key": {"Botrytis cinerea": {"system": "Botrytis cinerea", "assay": "Test A: preventive spray on tomato seedlings, Botrytis cinerea (tomato Botrytis), visual disease rating", "settings": "100 = 100% disease control, 0 = no disease control relative to controls", "excerpt": "General protocol for preparing test suspensions for Tests A-H: the test compounds were first dissolved in acetone in an amount equal to 3% of the final volume and then suspended at the desired concentration (in ppm) in acetone and purified water (50/50 mix by volume) containing 250 ppm of the surfactant Trem® 014 (polyhydric alcohol esters). The resulting test suspensions were then used in Tests A-F. Spraying a 40 ppm test suspension to the point of run-off on the test plants was the equivalent of a rate of 160 g/ha. Unless otherwise indicated, the rating values indicate a 40 ppm test suspension was used. The test suspension was sprayed to the point of run-off on tomato seedlings. The following day the seedlings were inoculated with a spore suspension of Botrytis cinerea (the causal agent of tomato Botrytis) and incubated in saturated atmosphere at 20° C. for 48 h, and then moved to a growth chamber at 27° C. for 3 days, after which time visual disease ratings were made. Results for Tests A-F are given in Table A. In the Table, a rating of 100 indicates 100% disease control and a rating of 0 indicates no disease control (relative to the controls). A dash (-) indicates no test results."}, "[1]": {"system": "Puccinia recondita f. sp. tritici", "assay": "Test E2: preventive spray on wheat seedlings, Puccinia recondita f. sp. tritici (wheat leaf rust), visual disease rating", "settings": "topical, 192 h, 100 = 100% disease control, 0 = no disease control relative to controls", "excerpt": "General protocol for preparing test suspensions for Tests A-H: the test compounds were first dissolved in acetone in an amount equal to 3% of the final volume and then suspended at the desired concentration (in ppm) in acetone and purified water (50/50 mix by volume) containing 250 ppm of the surfactant Trem® 014 (polyhydric alcohol esters). The resulting test suspensions were then used in Tests A-F. Spraying a 40 ppm test suspension to the point of run-off on the test plants was the equivalent of a rate of 160 g/ha. Unless otherwise indicated, the rating values indicate a 40 ppm test suspension was used. The test suspension was sprayed to the point of run-off on wheat seedlings. The following day the seedlings were inoculated with a spore suspension of Puccinia recondita f. sp. tritici (the causal agent of wheat leaf rust) and incubated in a saturated atmosphere at 20° C. for 24 h, and then moved to a growth chamber at 20° C. for 7 days, after which time visual disease ratings were made. Results for Tests A-F are given in Table A. In the Table, a rating of 100 indicates 100% disease control and a rating of 0 indicates no disease control (relative to the controls). A dash (-) indicates no test results."}, "Septoria nodorum": {"system": "Septoria nodorum", "assay": "Test C: preventive spray on wheat seedlings, Septoria nodorum (Septoria glume blotch), visual disease rating", "settings": "Parastagonospora nodorum, topical, 264 h, 100 = 100% disease control, 0 = no disease control relative to controls", "excerpt": "General protocol for preparing test suspensions for Tests A-H: the test compounds were first dissolved in acetone in an amount equal to 3% of the final volume and then suspended at the desired concentration (in ppm) in acetone and purified water (50/50 mix by volume) containing 250 ppm of the surfactant Trem® 014 (polyhydric alcohol esters). The resulting test suspensions were then used in Tests A-F. Spraying a 40 ppm test suspension to the point of run-off on the test plants was the equivalent of a rate of 160 g/ha. Unless otherwise indicated, the rating values indicate a 40 ppm test suspension was used. The test suspension was sprayed to the point of run-off on wheat seedlings. The following day the seedlings were inoculated with a spore suspension of Septoria nodorum (the causal agent of Septoria glume blotch) and incubated in a saturated atmosphere at 20° C. for 48 h, and then moved to a growth chamber at 20° C. for 9 days, after which time visual disease ratings were made. Results for Tests A-F are given in Table A. In the Table, a rating of 100 indicates 100% disease control and a rating of 0 indicates no disease control (relative to the controls). A dash (-) indicates no test results."}},
  "data": [
    {"smiles": "Cc1cc(F)c(Nc2c(-c3ccc(F)cc3Cl)c(C)nn2C)c(Br)c1", "note": "[Compound 1, N-(2-bromo-6-fluoro-4-methylphenyl)-4-(2-chloro-4-fluorophenyl)-1,3-dimethyl-1H-pyrazol-5-amine]", "values": [
      {"measurement": "pest or weed control at 40 µg/mL", "setting": "Botrytis cinerea", "result": 100, "unit": "%"},
      {"measurement": "pest or weed control at 40 µg/mL", "setting": "[1]", "result": 100, "unit": "%"},
      {"measurement": "pest or weed control at 40 µg/mL", "setting": "Septoria nodorum", "result": 90, "unit": "%"}
    ]}
  ]
}
